The assay concerns the target T1, Sortase family protein (Staphylococcus aureus, UniProt Q9S446).
T1 sequence (Q9S446 whole entry): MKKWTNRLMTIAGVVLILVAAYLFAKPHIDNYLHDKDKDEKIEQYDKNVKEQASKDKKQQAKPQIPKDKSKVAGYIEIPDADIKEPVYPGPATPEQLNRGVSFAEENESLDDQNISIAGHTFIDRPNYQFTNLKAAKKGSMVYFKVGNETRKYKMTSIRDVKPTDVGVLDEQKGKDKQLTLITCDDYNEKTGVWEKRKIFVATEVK
In words: Inhibition of Staphylococcus aureus sortase A after 1 hr in the presence of fluorescent peptide […]-QALPETGEE-Edans by fluorimetry.

Structures are written as SMILES. Where a name gives a salt, the structure may show the parent alone.

Turning to `O=C(O)c1cc[c]([Hg][OH])cc1` [para-(Hydroxymercury)benzoic acid sodium salt], the IC50 (usually the midpoint of a concentration-inhibition curve) came to 111 µM.

Source of the values: BindingDB's records for doi:10.1021/np9005629 (Seoul National University, 2010).
